Data reported in patent US20050100983A1, “Cell-free methods for identifying compounds that affect toll-like receptor 9 (TLR9) signaling” (Coley Pharmaceutical GmbH, priority 2003, published 2005).

What was measured:
[1] = target: T1, mTLR9ect (Mus musculus, UniProt Q9EQU3); experiment: UV-crosslinking of mTLR9ect with 32P-labeled DNA and SDS-PAGE; format: binding, murine; details: SDS-PAGE, complex at 150 kDa
T1 construct: mTLR9ect (aa 1-816); made in house
T1 sequence (Q9EQU3 26-816): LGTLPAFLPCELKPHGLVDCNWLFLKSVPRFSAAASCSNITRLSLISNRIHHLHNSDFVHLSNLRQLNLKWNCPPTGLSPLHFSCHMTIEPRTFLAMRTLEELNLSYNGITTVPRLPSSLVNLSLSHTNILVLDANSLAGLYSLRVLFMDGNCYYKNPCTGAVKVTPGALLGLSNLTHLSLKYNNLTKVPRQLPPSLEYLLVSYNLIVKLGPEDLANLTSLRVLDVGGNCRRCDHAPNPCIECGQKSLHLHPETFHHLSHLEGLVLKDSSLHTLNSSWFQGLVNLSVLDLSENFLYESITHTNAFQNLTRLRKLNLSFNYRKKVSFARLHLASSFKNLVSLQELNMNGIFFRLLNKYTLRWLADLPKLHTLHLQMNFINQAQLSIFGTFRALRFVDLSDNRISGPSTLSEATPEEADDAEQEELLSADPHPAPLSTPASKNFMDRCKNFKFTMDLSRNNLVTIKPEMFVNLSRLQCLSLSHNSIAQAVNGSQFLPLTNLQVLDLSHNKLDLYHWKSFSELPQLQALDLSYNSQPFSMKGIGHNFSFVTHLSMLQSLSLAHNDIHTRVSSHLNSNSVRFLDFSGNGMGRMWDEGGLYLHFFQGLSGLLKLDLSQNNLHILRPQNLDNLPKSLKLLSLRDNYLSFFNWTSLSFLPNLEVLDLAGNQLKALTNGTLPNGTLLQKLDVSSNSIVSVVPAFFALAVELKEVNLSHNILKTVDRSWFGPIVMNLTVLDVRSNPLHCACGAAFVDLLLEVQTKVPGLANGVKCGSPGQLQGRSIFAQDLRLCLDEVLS
Excerpt: FIG. 1B is an image of an SDS-PAGE gel depicting purified proteins from FIG. 1A UV-crosslinked with ^32P-labeled CpG- or non-CpG-DNA, separated by SDS-PAGE, and autoradiographed. TLR9 and free DNA are highlighted.
Bauer S et al. (2001) Proc. Natl. Acad. Sci. U.S.A. 98:9237-9242. To assess binding of TLR9 to CpG-DNA, a recombinant fusion protein consisting of the extracellular domain of murine TLR9 and human IgG 1-Fc (mTLR9ect) was constructed. The extracellular domain of murine TLR2 also fused to IgG1-Fc (mTLR2ect) served as control. Proteins were expressed in HEK 293 cells and purified via protein A affinity chromatography (FIG. 1A). Under denaturing and non-reducing conditions mTLR9ect and mTLR2ect are approximately 10% in a monomeric and 90% in a dimeric form. Dimerization of the proteins is probably mediated by the IgG 1-Fc fusion partner which forms disulfide bonds (FIG. 1A). Initially, binding of mTLR9ect to radiolabeled DNA was determined by UV-crosslinking and subsequent SDS-PAGE.

[2] = target: T2, mTLR9ect (extracellular domain of murine TLR9 fused to human IgG1-Fc) (Mus musculus, UniProt Q9EQU3); experiment: SPR biosensor analysis of mTLR9ect binding to immobilized CpG-DNA
T2 construct: mTLR9ect (aa 1-816); made in house
T2 sequence (Q9EQU3 26-816): T1 sequence (Q9EQU3 26-816)
Excerpt: (§1) Protein. Recombinant fusion proteins consisting of the extracellular domain of Toll-like receptors mTLR9ect (aa 1-816), mTLR9ect-mut (see below) (aa 1-816), hTLR9ect (aa 1-815) and mTLR2ect (aa 1-587) fused to human IgG1-Fc were constructed by amplifying the corresponding extracellular domain and ligating the fragment in frame into a pcDNA3.1(−) (Invitrogen, Netherlands) vector containing the coding sequence for human IgG1-Fc. Fusion proteins were stably expressed in HEK 293 cells and purified from cell lysates by protein A affinity chromatography.
(§2) SPR biosensor analysis. Real-time binding of TLR9 or TLR2 was measured by surface plasmon resonance biosensor technology using the BiaCore X system (Uppsala, Sweden). For analysis of TLR9 and TLR2 interaction, biotinylated CpG-DNA and non-CpG-DNA, or biotinylated Pam3CysK4 and PHCK4, respectively, were loaded in running buffer (50 mM MES, 150 mM NaCl, 1 mM MgCl2 at pH 6.5) on SA chips precoated with streptavidin (Biacore AB, Uppsala, Sweden). Non-CpG-DNA or PHCK4 (Wiesmuller K H et al. (1989) Vaccine 7:29-33) served as reference for CpG-DNA and Pam3CysK4 interaction (structure or sequence in Table 1). […] TLR proteins were introduced at 200 nM or as indicated in 40 μl running buffer at a flow rate of 10 μl/min. Binding was measured at 25° C. for 750 s (delay time 300 s). […] Sensorgrams were recorded and kinetic data were calculated by the BiaCore Evaluation program (Biacore, version 3.0.1). Regeneration of the chip was performed by injection of 10 μl 50 mM NaOH, 1 M NaCl and extensive re-equilibration.
For detailed analysis of TLR9-CpG-DNA interaction, surface plasmon resonance (SPR) biosensor based technology was used with CpG- and non-CpG-DNA immobilized onto separate flow cells of a streptavidin-coated chip. Under these settings non-CpG-DNA served as reference for specific binding (see Methods). Binding of mTLR9ect to DNA was CpG-sequence-specific and increased in a dose-dependent manner. […] Using the 1:1 binding model of the BioEvaluation software as fitting algorithm and on the basis of four different mTLR9ect concentrations ranging from 50 to 300 nM, a dissociation constant (Kd) of 200 nM was obtained with low chi-squared residuals (4,76). […] Weber AN et al. (2003) Nat. Immunol. 4:794-800. Furthermore the concentration of CpG-DNA 1668 (SEQ ID NO:1) for half-maximal activation of murine TLR9 has been recently calculated as 70 nM which correlates well with the KD obtained here. Bauer S et al. (2001) Proc. Natl. Acad. Sci. U.S.A. 98:9237-9242. […] This difference in affinity correlates with the observed species-specific variance in CpG-motif recognition, as well as activation potential. Bauer S et al. (2001) Proc. Natl. Acad. Sci. U.S.A. 98:9237-9242.

[3] = target: T3, human TLR9ect (Homo sapiens, UniProt Q9NR96); experiment: SPR biosensor analysis of human TLR9ect binding to CpG-DNA 2006; details: non-CpG-DNA 2006GC as control
T3 construct: hTLR9ect (aa 1-815); made in house
T3 sequence (Q9NR96 26-815): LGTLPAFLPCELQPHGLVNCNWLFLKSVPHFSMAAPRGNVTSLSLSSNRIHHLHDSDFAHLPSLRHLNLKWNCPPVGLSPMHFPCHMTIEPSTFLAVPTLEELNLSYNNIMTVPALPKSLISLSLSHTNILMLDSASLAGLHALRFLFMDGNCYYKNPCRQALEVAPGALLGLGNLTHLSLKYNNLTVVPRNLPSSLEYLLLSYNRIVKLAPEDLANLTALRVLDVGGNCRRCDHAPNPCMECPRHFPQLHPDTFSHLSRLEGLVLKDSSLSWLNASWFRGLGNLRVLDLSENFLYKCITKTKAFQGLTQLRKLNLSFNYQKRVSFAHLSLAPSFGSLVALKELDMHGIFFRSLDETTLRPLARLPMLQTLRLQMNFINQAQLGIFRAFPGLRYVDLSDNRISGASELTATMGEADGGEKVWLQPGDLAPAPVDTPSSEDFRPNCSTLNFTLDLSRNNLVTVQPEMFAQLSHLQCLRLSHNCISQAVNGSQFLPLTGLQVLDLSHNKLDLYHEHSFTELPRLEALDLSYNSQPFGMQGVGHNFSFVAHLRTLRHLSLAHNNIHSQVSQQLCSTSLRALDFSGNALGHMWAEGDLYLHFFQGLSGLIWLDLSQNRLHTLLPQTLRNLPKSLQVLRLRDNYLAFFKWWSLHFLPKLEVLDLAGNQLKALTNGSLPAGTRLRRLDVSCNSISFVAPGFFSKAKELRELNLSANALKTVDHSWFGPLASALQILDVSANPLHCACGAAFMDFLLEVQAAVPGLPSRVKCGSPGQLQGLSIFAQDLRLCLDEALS
Excerpt: as §1
SPR biosensor analysis. Real-time binding of TLR9 or TLR2 was measured by surface plasmon resonance biosensor technology using the BiaCore X system (Uppsala, Sweden). For analysis of TLR9 and TLR2 interaction, biotinylated CpG-DNA and non-CpG-DNA, or biotinylated Pam3CysK4 and PHCK4, respectively, were loaded in running buffer (50 mM MES, 150 mM NaCl, 1 mM MgCl2 at pH 6.5) on SA chips precoated with streptavidin (Biacore AB, Uppsala, Sweden). Non-CpG-DNA or PHCK4 (Wiesmuller K H et al. (1989) Vaccine 7:29-33) served as reference for CpG-DNA and Pam3CysK4 interaction (structure or sequence in Table 1). […] Binding was measured at 25° C. for 750 s (delay time 300 s). […] Sensorgrams were recorded and kinetic data were calculated by the BiaCore Evaluation program (Biacore, version 3.0.1). […]

[4] = system: murine TLR9; experiment: NF-κB luciferase assay, HEK 293 cells transfected with murine TLR9; format: cell-based; details: TLR9-transfected HEK 293 cells, 1 μM CpG-DNA, inhibitor added 15 min prior to stimulation
Procedure: Activation is expressed as fold induction compared to no stimulation. NF-κB luciferase assay. For monitoring transient NF-κB activation, 3×10^6 HEK 293 cells were electroporated at 200 volt and 950 μF with 20 ng of a NF-κB luciferase reporter plasmid (kindly provided by Patrick Baeuerle, Munich, Germany) and 1 μg mTLR2 (kindly provided by Tularik, Inc., South San Francisco, USA), mTLR9, or mTLR9-mut expression plasmid. Cells were seeded at 10^5 cells per well and after overnight culture stimulated with 1 μM phosphorothioated CpG-DNA 1668 (SEQ ID NO:1), 1 μM non-CpG-DNA 1668GC (SEQ ID NO:3), 1 μg/ml Pam[…][…] or 1 μg/ml PHCK4 for further 8 hours. […] Stimulated cells were lysed using reporter lysis buffer (Promega, Mannheim, Germany) and lysates were assayed for luciferase activity using a Berthold luminometer (Wildbad, Germany) according to the manufacturer's instruction.

[5] = target: T4, TLR9-CpG-DNA interaction (Mus musculus, UniProt Q9EQU3); experiment: SPR biosensor analysis of inhibitors on TLR9-CpG-DNA interaction; format: binding, murine; details: SPR, 200 nM TLR9, immobilized CpG-DNA 1668
T4 construct: mTLR9ect (aa 1-816); made in house
T4 sequence (Q9EQU3 26-816): T1 sequence (Q9EQU3 26-816)
Procedure: Biotinylated CpG-DNA 1668 (SEQ ID NO:1) and non-CpG-DNA 1668GC (SEQ ID NO:3) were immobilized on streptavidin sensor chip flow cells 1 and 2, respectively.
FIG. 2B is a graph depicting SPR biosensor analysis of quinoquine (QC) on TLR9-PAMP interaction. Biotinylated CpG-DNA 1668 (SEQ ID NO:1) and non-CpG-DNA 1668GC (SEQ ID NO:3) were immobilized on streptavidin sensor chip flow cells 1 and 2, respectively. 200 nM TLR9 and indicated concentrations of quinoquine were injected and sensorgrams recorded.
as §2

Compound: 5′-TCCATGAGCTTCCTGATGCT-3′ (chemistry not given here) [non-CpG-DNA 1668GC, non-CpG control oligodeoxynucleotide]
- binding of mTLR9ect to radiolabeled DNA [1]: bound only weakly
- release of bound mTLR9ect by free injected DNA ([2]; competition, free DNA added in dissociation phase): did not lead to the release
- effect of pre-incubation of mTLR9ect with DNA on binding to chip-immobilized CpG-DNA ([2]; pre-incubation prior to SPR analysis): no inhibitory effect

Compound: 5′-TCGTCGTTTTGTCGTTTTGTCGTT-3′ [CpG-DNA 2006]
- interaction with human TLR9ect [3]: specifically interacted

Compound: CO/C1=C\C(C)=C\[C@@H](C)[C@@H](O)[C@@H](C)C/C(C)=C/C=C/[C@H](OC)[C@@H]([C@@H](C)[C@@H](O)[C@H](C)[C@@]2(O)C[C@@H](O)[C@H](C)[C@@H](C(C)C)O2)OC1=O [bafilomycin A1]
- inhibition of TLR9-driven NF-κB activation [4]: inhibited cell activation
- inhibition of binding of TLR9 to CpG-DNA [5]: did not influence
